Reference: patent US11534475B2, “Carbohydrate-based peritoneal dialysis fluid comprising glutamine residue” (ZYTOPROTEC GmbH, priority 2007, dated 2022)
Where a SMILES comes first, the peptide text is derived from it.

Experiments:
[1] = tested on: mesothelial cells; assay: Longterm (24 hours) exposure model, PDF diluted 1:1 with medium: viability by LDH release; format: cell-based; details: PDF diluted 1:1 with M199, L-alanyl-L-glutamine 0.5 and 10.0 g/L, compared to standard PDF
Description: (§1) The acute recovery experimental setting as described for glutamine as a proof of principle for the cytoprotective PDF, is best representative for the early toxic effects of PDF, mainly due to low pH and lactate as major culprits. Alternate models such as a longterm exposure model to unused PDF diluted 1:1 with normal culture medium are better accepted tools to assess effects of cellular processes that occur in the peritoneum upon more extended exposure to PDF, as occurs in clinical PD. […] Additional control cultures are kept in pure regular culture media at 37° C. for the same time. At the end of the study, cell viability and protein expression are assessed in parallel cultures to identify the cytoprotective PDF.

[2] = tested on: HSP-72; assay: Longterm (24 hours) exposure model, PDF diluted 1:1 with medium: HSP-72 expression; format: cell-based; details: PDF diluted 1:1 with M199, L-alanyl-L-glutamine 0.5 and 10.0 g/L, compared to standard PDF
Description: as §1

[3] = tested on: Immortalized human mesothelial cells (Met5A, ATCC CRL-9444); assay: In-vitro model of PD: viability by LDH release; format: cell-based; details: for LDH release: % of negative control, mean+/-S.D.
Experimental: Immortalized human mesothelial cells (Met5A, ATCC CRL-9444) were cultured in M199/MCDB 105 medium (1:1) supplemented with 100 units/ml penicillin, 100 µg/ml streptomycin and 10% FCS. Cultures were kept in 75 cm^2 tissue culture flasks (Falcon, Becton Dickinson, Oxnard, Calif.) at 37° C. in 5% CO2 and passaged by regular trypsinization. Medium was changed every two to three days. Confluence was reached on average after 6 to 7 days.
Confluent cultures were then exposed for 120 minutes to standard glucose-monomer and acidic lactate-based PDF (Fresenius 2, Bad Homburg, Germany), containing 1.5% anhydrous dextrose at pH 5.5, with or without addition of cytoprotective compound (glutamine at 4 to 20 mM) and allowed to recover in regular growth medium for 16 hours. Control cultures were kept in regular culture media at 37° C. and underwent “sham media changes”, i.e.: exposure to PDF was paralleled by exposure to control medium.
Viability of cells was assessed by lactate dehydrogenase (LDH) analyses. Fifty μl aliquots of supernatants were removed after the described experimental setup and kept on 4° C. until analyzed within 48 hours. Measurements were performed in duplicates with Sigma TOX-7 LDH Kit according to the manufacturer instructions. LDH efflux was calculated as percentage of LDH values measured in each negative control experiment. Induction of HSP was assessed in parallel cultures as described below.

[4] = tested on: mesothelial cells; assay: In-vivo acute rat model of PD: mesothelial cell detachment; set-up: species or system Sprague Dawley rats; details: 4 hr dwell, intraperitoneal PDF with or without L-glutamine, mean+/-S.D.
Experimental: (§2) The studies were carried out on adult male inbred Sprague Dawley rats (average weight 310 g).
After introduction of anaesthesia (ketamine 100 mg/kg and 5 mg/kg xylazine, intramusculary) the animals were placed on a heated small animal operating table. A sterile catheter was inserted into the peritoneal cavity through a small abdominal midline incision and 35 ml of test fluid (PDF with or without addition of L-glutamine at 4-10 mM) were slowly infused in 45-60 secs. The animal was gently moved, a small volume of peritoneal fluid aspirated, the catheter withdrawn and the abdomen sutured. Animals awoke within 20 minutes after the procedure and had free access to food and tap water. At 4 hours after the intraperitoneal injection animals were again anaesthetized, another small volume of peritoneal fluid was aspirated and animals were sacrificed by cardial puncture and exsanguinations. Thereafter, the abdomen was opened by a midline incision and the complete intraperitoneal fluid gently collected. The volumes of the collected fluids were recorded, and total cell count and differential counts at the two time pints (0 and 4 hours) were assessed by hand count after giemsa staining and by machine count by a coulter counter. Total number of detached mesothelial cells was then computed for each rat. […]

[5] = tested on: peritoneal membrane; assay: In-vivo acute rat model of PD: barrier function of the peritoneal membrane; set-up: species or system Sprague Dawley rats; details: 4 hr dwell
Experimental: as §2
After introduction of anaesthesia (ketamine 100 mg/kg and 5 mg/kg xylazine, intramusculary) the animals were placed on a heated small animal operating table. A sterile catheter was inserted into the peritoneal cavity through a small abdominal midline incision and 35 ml of test fluid (PDF with or without addition of L-glutamine at 4-10 mM) were slowly infused in 45-60 secs. The animal was gently moved, a small volume of peritoneal fluid aspirated, the catheter withdrawn and the abdomen sutured. Animals awoke within 20 minutes after the procedure and had free access to food and tap water. At 4 hours after the intraperitoneal injection animals were again anaesthetized, another small volume of peritoneal fluid was aspirated and animals were sacrificed by cardial puncture and exsanguinations. Thereafter, the abdomen was opened by a midline incision and the complete intraperitoneal fluid gently collected. The volumes of the collected fluids were recorded, and total cell count and differential counts at the two time pints (0 and 4 hours) were assessed by hand count after giemsa staining and by machine count by a coulter counter. Total number of detached mesothelial cells was then computed for each rat.
For testing the barrier function of the peritoneal membrane, creatinine, glucose and total protein were measured in dialysate (D) samples and creatinine in plasma (P) at the end of the protocol. D/P ratios for creatinine and D/D0 ratios for glucose were computed. Peritoneal loss of protein was calculated as final dialysate concentration×final volume.

[6] = tested on: HSP-72; assay: In-vitro model of PD: HSP-72 expression by Western blotting; format: cell-based, human
Experimental: Immortalized human mesothelial cells […], ATCC CRL-9444) were cultured in M199/MCDB 105 medium (1:1) supplemented with 100 units/ml penicillin, 100 µg/ml streptomycin and 10% FCS. Cultures were kept in 75 cm^2 tissue culture flasks (Falcon, Becton Dickinson, Oxnard, Calif.) at 37° C. in 5% CO2 and passaged by regular trypsinization. Medium was changed every two to three days. Confluence was reached on average after 6 to 7 days. Confluent cultures were then exposed for 120 minutes to standard glucose-monomer and acidic lactate-based PDF (Fresenius 2, Bad Homburg, Germany), containing 1.5% anhydrous dextrose at pH 5.5, with or without addition of cytoprotective compound ([…] to 20 mM) and allowed to recover in regular growth medium for 16 hours. Control cultures were kept in regular culture media at 37° C. and underwent “sham media changes”, i.e.: exposure to PDF was paralleled by exposure to control medium. Western blotting: Protein content of mesothelial cell harvests was determined by Bradford assay (BioRad) and equal amounts of protein samples (5 μg/lane) were separated by standard SDS-PAGE using a Pharmacia Multiphore II unit. Size-fractionated proteins were transferred to PVDF membranes by semi-dry transfer in a Pharmacia Multiphore II Novablot unit. Membranes were blocked in 5% dry milk in TBS-Tween (10 mM Tris, 150 mM NaCl, 0.05% Tween 20, pH 8.0). Membranes were incubated with the HSP-72 antibody (SPA 810, Stressgen, B.C., Canada). Detection was accomplished by incubation with secondary, peroxidase-coupled antibodies (Sigma, USA) and enhanced chemiluminescence (ECL) using ECL Western blotting analysis system and protocols (Renaissance, NEN-Life Science Products, Boston, Mass., USA). Densitometry was performed with image analysis software (Molecular Analyst software, BioRad, USA). Differential expression of HSP-72 was derived from the ratio of specific signals in the linear range of the protein/signal intensity relationship, normalized to an internal standard, and compared between parallel experiments.

[7] = tested on: HSP-72; assay: In-vivo acute rat model of PD: HSP-72 expression in harvested mesothelial cells; set-up: species or system Sprague Dawley rats; details: 4 hr dwell, L-glutamine supplemented PDF vs standard PDF
Experimental: After introduction of anaesthesia (ketamine 100 mg/kg and 5 mg/kg xylazine, intramusculary) the animals were placed on a heated small animal operating table. A sterile catheter was inserted into the peritoneal cavity through a small abdominal midline incision and 35 ml of test fluid (PDF with or without addition of L-glutamine at 4-10 mM) were slowly infused in 45-60 secs. The animal was gently moved, a small volume of peritoneal fluid aspirated, the catheter withdrawn and the abdomen sutured. Animals awoke within 20 minutes after the procedure and had free access to food and tap water. At 4 hours after the intraperitoneal injection animals were again anaesthetized, another small volume of peritoneal fluid was aspirated and animals were sacrificed by cardial puncture and exsanguinations. Thereafter, the abdomen was opened by a midline incision and the complete intraperitoneal fluid gently collected. The volumes of the collected fluids were recorded, and total cell count and differential counts at the two time pints (0 and 4 hours) were assessed by hand count after giemsa staining and by machine count by a coulter counter. […]
Western blotting: Protein content of mesothelial cell harvests was determined by Bradford assay (BioRad) and equal amounts of protein samples (5 μg/lane) were separated by standard SDS-PAGE using a Pharmacia Multiphore II unit. […]

## C[C@H](N)C(=O)N[C@@H](CCC(N)=O)C(=O)O [L-alanyl-L-glutamine] (H-Ala-Gln-OH)
[1]
  Viability assessed by LDH release: preserved viability
[2]
  HSP-72 expression: increased

## NC(=O)CC[C@H](N)C(=O)O [L-glutamine]
[3]; control conditions (no PDF)
  LDH release: 91+/−7%
[3]; control conditions, L-glutamine up to 20 mM
  Viability (LDH release): unchanged viability
[3]; during exposure to PDF for 120 min, 16 hours recovery
  LDH release: 190+/−19%
[4]
  Mesothelial cell detachment: 38+/−38 cells
[5]
  D/Do glucose: 0.469+/−0.04
  D/P creatinine: 0.375+/−0.11
  Net ultrafiltration: 5.4 ± 2.7 mL
[5]; final dialysate concentration x final volume
  Protein loss into the dialysate effluate: 65 ± 4 mg
[6]; control conditions (no PDF), relative to control, mean+/-S.D.
  HSP-72 expression: 234+/−221%
[6]; control conditions, L-glutamine 8 and 10 mM
  HSP-72 expression: increased
[6]; during exposure to PDF for 120 min, relative to control, mean+/-S.D.
  HSP-72 expression: 1895+/−1928%
[7]
  HSP-72 expression in rat mesothelial cells: overexpression of HSP-72
